This is an account of results in PubChem BioAssay (NCI).

Experiment in all cases: growth of human tumour cells (NCI), 48 h
In experiment [1] the test system is CAKI-1 renal.
In experiment [2] the test system is EKVX NSCLC.
Experiment [3] has as its system HS 578T breast.
The test system of experiment [4] is IGROV1 ovarian.
Experiment [5] deals with LOX IMVI melanoma.
Experiment [6] relates to MDA-MB-435.
The test system of experiment [7] is NCI-H460 lung.
In experiment [8] the test system is OVCAR-3 ovarian.
Experiment [9] has as its system OVCAR-5 ovarian.
Experiment [10] deals with TK-10 renal.

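Five concentrations, 48 hours, 96-well plates. The concentration for 50% growth inhibition is given as GI50. TGI: concentration producing complete growth inhibition.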

As for `CC(C)C[C@H](NC(=O)CNC(=O)c1cc(Cl)ccc1Cl)B1OC(=O)CC(CC(=O)O)(C(=O)O)O1` (some centres undefined), the GI50 was 0.041 µM in experiment [1]; 0.369 µM in experiment [2]; 0.0524 µM in [3]; 0.231 µM in [4]; 0.0325 µM in experiment [5]; 0.0222 µM in experiment [6]. Further, the GI50 was 0.231 µM in experiment [7], 0.0269 µM in experiment [8], 0.0928 µM in [9] and 0.0287 µM in experiment [10]. The TGI in [1] is 4.48 µM; in experiment [2], 30.8 µM; in experiment [3], 80.7 µM; in [4] it was above 41.8 µM; in [5] it was 0.12 µM; in experiment [6] it was 0.0612 µM. In addition, the TGI was 0.0791 µM in experiment [8], 1.2 µM in experiment [9] and 0.373 µM in [10].
For `Cc1cc(S(=O)(=O)/N=C(/N)Nc2ccccc2O)c(SCc2ccccc2)cc1Cl`, the GI50 in experiment [1] was 13.5 µM; in [2] it was 11 µM; in experiment [3], 21.8 µM; in experiment [4], 11 µM; in experiment [5], 14.6 µM; in experiment [6], 13.5 µM. Besides, the GI50 was 7.64 µM in experiment [7], 14.5 µM in experiment [8], 19.8 µM in experiment [9] and 22.9 µM in [10]. For the same molecule, the TGI in [1] came to 32.3 µM; in experiment [2], 37.8 µM; in experiment [3], 47.9 µM; in [4], 26.9 µM; in experiment [5], 33.5 µM; in experiment [6] it was 32 µM. Moreover, the TGI in experiment [7] worked out at 50.7 µM; in experiment [8] it was 34.1 µM; in experiment [9], 35.9 µM; in [10], 41.2 µM.
For `Fc1ccc(/C=N/n2c(-c3ccc(F)c(Cl)c3)nn(CNc3ccccc3C(F)(F)F)c2=S)cc1`, the GI50 was above 100 µM in experiment [1]; 37.2 µM in experiment [2]; 45.2 µM in [3]; 83.6 µM in experiment [4]; 54.9 µM in experiment [5]; 43.1 µM in [6]. The GI50 in experiment [7] was 43.3 µM; in [8], 53.9 µM; in experiment [9] it was above 100 µM; in experiment [10], 38.7 µM. The TGI in [1], in experiment [2], in experiment [3], in [4], in experiment [5] and in experiment [6] was above 100 µM in each case. Also, the TGI in [7], in experiment [8], in [9] and in [10] was above 100 µM throughout.
With `O=[N+]([O-])c1ccc(C=Cc2ccccc2)cc1.[C-]#[O+].[C-]#[O+].[C-]#[O+].[Cr]`, the GI50 is 11.9 µM in experiment [1]; 2.93 µM in [2]; 62.9 µM in [3]; 6.78 µM in [4]; 31.3 µM in experiment [5]; 4.81 µM in experiment [6]. The GI50 in [7] is 3.37 µM; in experiment [8] it was 21.2 µM; in experiment [9] it was above 100 µM; in experiment [10] it was 12 µM. The TGI is above 100 µM in experiment [1]; 30 µM in experiment [2]; above 100 µM in experiment [3]; above 100 µM in experiment [4]; above 100 µM in [5]; above 100 µM in experiment [6]. The TGI was 89.7 µM in [7], above 100 µM in [8], above 100 µM in [9] and above 100 µM in experiment [10].
With `C[C@@H]1CN(Cc2ccc(F)cc2)[C@@H](C)CN1C(=O)c1cc2c(C(=O)C(=O)N(C)C)cn(C)c2cc1Cl`, the GI50 was 16.1 µM in [1]; 20.7 µM in [2]; 19.8 µM in [3]; 19.5 µM in experiment [4]; 14.2 µM in experiment [5]; 15 µM in experiment [6]. In addition, the GI50 in experiment [7] was 16.8 µM; in experiment [8] it was 18.7 µM; in experiment [9] it was 21.8 µM; in experiment [10], 30.3 µM. For the same molecule, the TGI in [1] amounted to 67.4 µM; in experiment [2], 89.8 µM; in experiment [3], 62.8 µM; in experiment [4], 49.7 µM; in experiment [5] it was 28.4 µM; in experiment [6] it was 35.1 µM. The TGI in [7] was 37.4 µM; in experiment [8] it was 39.2 µM; in [9], 60.4 µM; in experiment [10], above 89.7 µM.
Consider `NNC(=O)CS(=O)(=O)Nc1ncccn1`, for which the TGI in experiment [1], in experiment [2], in [3], in experiment [4], in experiment [5] and in experiment [6] was above 100 µM each time. For the same molecule, the TGI in experiment [7], in experiment [8], in experiment [9] and in [10] was above 100 µM throughout.
